# Measurements as given in a melting point compilation (Tetko et al.; mined from patent text by program, amines drawn as free bases though some values may be those of a salt).
row,SMILES,melting point
1,Nc1nc(C(F)(F)F)c(CN2C(=O)C3(COc4cc5c(cc43)OCO5)c3ccccc32)s1 (configuration not stated),165 to 167 °C
2,CC(=O)C1COc2ccccc2C1=O (configuration not stated),81 to 83 °C
3,CCCc1c2occ(C(=O)O)cc-2c(=O)c2cc(C(=O)O)sc12,> 250 °C
4,CCc1cc2c(cc1C(CC)SCC(=O)O)OCO2 (configuration not stated),88 to 89 °C
5,COc1cccc(N(C)C(=O)c2cnc(Br)s2)c1,106 °C
6,COC(=O)[C@H](CCCCNC(=O)OC(C)(C)C)NC(=O)c1ccccc1,108 to 109 °C
7,CCC(C)(C)N1C(=O)C2(COc3cc4c(cc32)CCO4)c2ccccc21 (configuration not stated),128 to 129 °C
8,C#CCN1CCc2cc(OC)c(O)c3c2C1Cc1cc(OC)c(OC)cc1-3 (configuration not stated),135 to 150 °C
9,CC1Cc2ccccc2C(O)(C2CCN(C)CC2)c2ccsc21 (configuration not stated),177 to 178 °C
10,OC1CSC(Oc2cc(F)cnc2Cl)C(O)C1O (configuration not stated),143 °C
11,COc1cc2cc(COC(C)=O)c(COC(C)=O)c(C)c2cc1OC,130 to 131 °C
12,NS(=O)(=O)C1CCCCC1=O (configuration not stated),118 to 119 °C
13,O=C(O)C(O)C1CCN(Cc2ccccc2)C1 (configuration not stated),174 to 176 °C
14,OC1CSC(Oc2cncc(-c3c(F)cc(F)cc3F)c2)C(O)C1O (configuration not stated),228 °C
15,O=C(CC(F)(F)F)N[C@H]1CC[C@H](CCN2CCC(c3cccc4c3CCO4)CC2)CC1,197 °C
16,Cc1cc2c(cc1C(C)SCC(=O)O)OCO2 (configuration not stated),93.5 to 94.5 °C
17,Cc1c(C)c(Cl)c(C(=O)c2ccccc2)c(C)c1Cl,105 to 107 °C
18,FC(F)(F)CNC(=S)NCc1ccc(OC(F)(F)F)cc1,94.7 to 96.4 °C
19,NC(=O)c1ccc2c([N+](=O)[O-])cc3c(c2c1)C(CCl)CN3 (configuration not stated),> 300 °C
20,CCCOc1nsc(NC(=O)NC)c1C(N)=O,195 to 198 °C
21,Cc1c(C)c2c(c(C)c1N)CC(C)(CN1CCC(O)(c3ccc(Cl)cc3)CC1)O2 (configuration not stated),118 to 120 °C
22,CC(=O)Oc1cc2c(c(OC(C)=O)c1)C1CCC3(C)C(O)CCC3C1CC2 (configuration not stated),210 to 211 °C
23,CC(=O)OC1CCC2(C)C(=CCC3C2CCC2(C=CCl)C(OC(C)=O)CCC32)C1 (configuration not stated),155 to 156 °C
24,CCCC(NOCC)=C1C(=O)CC(C2=C(C)CCCC2(C)C)C(C(=O)OC)C1=O (configuration not stated),70 °C
25,CCOC(=O)C1=C(C)NC(=S)NC1c1cccc([N+](=O)[O-])c1 (configuration not stated),208 to 209 °C
26,CCOC(=O)Nc1ccc(Br)cc1F,72 to 73 °C
27,CCOC(=O)c1sc2ccc(Cl)cc2c1C,92.5 to 94 °C
28,CCOC(=O)C1=C(COCCO)NC(C)=C(C(=O)OC)C1c1cccc(Cl)c1Cl (configuration not stated),120 to 121 °C
29,CC(=O)NC[C@H]1CN(c2ccc(N3CCSCC3)c(F)c2)C(=O)O1,186 °C
30,Cc1[nH]cnc1CSCCO,74 to 76 °C

# Next, values leading:
row,melting point,SMILES
1,207 to 208 °C,CSc1cccc(COCCCO)c1NC(=O)CC1c2ccccc2Oc2ccccc21
2,191 to 193 °C,COCc1nc2c(N)nc3cc(CCC#N)ccc3c2n1CC(C)(C)O
3,120 to 121 °C,NNc1cc(-c2ccccn2)ccn1
4,> 270 °C,CCn1c(=O)c2[nH]c(/C=C/c3cccc(F)c3C)nc2n(CC)c1=O
5,74 to 76 °C,COc1cc(CC(=O)O)ccc1OCCNC(=O)C1Cc2ccccc2N1S(=O)(=O)c1ccc(-c2cc(C(F)(F)F)ccc2Cl)cc1 (configuration not stated)
6,67 to 69 °C,Cc1ccc(C2=CC(O)CN(C)C2)cc1 (configuration not stated)
7,223 °C,O=C(NNS(=O)(=O)c1cccc(F)c1)c1ccc2oc3ccccc3c2c1
8,73 to 74 °C,CCN(CC)C(=O)c1ccoc1-c1ccc(N(C)C)cc1
9,182 to 183 °C,N#Cc1ncn(-c2cccc(Cl)c2F)c1I
10,> 300 °C,COc1ccc(COc2cccc(-c3cnc4[nH]cc(C(=O)C(C)(C)C)c4n3)c2)cc1
11,110 to 115 °C,COC(=O)C(C)Oc1ccc(Oc2cnc3ccccc3n2)cc1 (configuration not stated)
12,110 to 112 °C,Oc1ccc2cc(Cc3c(Cc4ccccc4)sc4ccccc34)ccc2c1Br
13,> 320 °C,Cc1ccc(Cl)c(C)c1Nn1cc(C#N)c(=O)[nH]c1=O
14,178 to 180 °C,CC(C)(C)OC(=O)NCc1ccc(Nc2ncc(Br)cc2[N+](=O)[O-])cc1
15,214 to 215 °C,Fc1ccc(-c2nc3ccccc3n3cncc23)cc1
16,194 °C,CCN1CC(C(=O)N2CCOCC2)Cc2cccc(CSc3nc4ccccc4[nH]3)c21 (configuration not stated)
17,260 to 268 °C,c1cnc2c(c1)N(c1ccc3[nH]cc(C4CCNCC4)c3c1)CN2
18,221 to 223 °C,COc1ccc(C(=O)/C=C/c2c(-c3ccc(F)cc3)nc3sccn23)cc1OC
19,102 to 105 °C,COc1ccc(C(=O)c2ccnn2Cc2ccccc2)c(Cl)c1Cl
20,68 to 70 °C,CCCCCCCCCCCCCCCCCCOc1ccc(OCCCc2ccccc2)c(C(=O)O)c1
21,202 to 205 °C,CC(=O)Nc1cccc(Oc2cc(-c3ccc(C(F)(F)F)cc3)ncn2)c1

row,melting point,SMILES
1,196 to 197 °C,O=C(/C=C/c1ccc(S(=O)(=O)N2CCN(c3ccccc3F)CC2)cc1)NO
2,114 to 118 °C,CCN1C(=O)C(C)(C)C(=O)N(C)c2cc(CN(CCn3ccc4oc(C)cc4c3=O)Cc3cnccc3Cl)ccc21
3,> 400 °C,O=c1[nH]c2ncc(-c3ccc(-c4nn[nH]n4)cc3)nc2n1CC1CCCCC1
4,78 to 80 °C,CCCc1nn(C)c2c(=O)n(CCCc3cccc(OC(C)(C)C(=O)O)c3)c(C)nc12
5,114 to 116 °C,Cc1nn(CCO)c(C)c1Oc1cc(Cl)cc(C#N)c1
6,59 to 60 °C,[N-]=[N+]=NC(c1ccccc1)C(O)c1ccccc1 (configuration not stated)
7,62 to 63 °C,O=c1oc2cccnc2n1CCCN1CCN(c2cccc(C(F)(F)F)c2)CC1
8,110 to 115 °C,CCCSc1nc(-c2ccc(C#N)cc2)cn1-c1ccc(I)cc1
9,178 °C,Cn1cncc1C(O)(c1ccc(Cl)cc1)c1ccc2nc(-c3cccnc3)nc(-c3cccc(Cl)c3)c2c1 (configuration not stated)
10,129 to 135 °C,O=[N+]([O-])c1ccc(-c2ccc3nncn3n2)cc1C(F)(F)F
11,137 to 138 °C,COc1cc2c(cc1O)CCN(Cc1ccccn1)C2
12,139 to 141 °C,CN1CCN(C2=Nc3ccccc3Cn3cccc32)CC1
13,176 to 178 °C,CCCCN(CCCC)c1ccc(C=Cc2ccc(C=CC3=C(C#N)C(=C(C#N)C#N)OC3(c3ccccc3)C(F)(F)F)cc2)c(OC)c1 (configuration not stated)
14,176 to 181 °C,O=C(O)c1cccc(-c2ccc3c(c2)C(Oc2ccc(Cl)cc2Cl)CCC3)c1 (configuration not stated)
15,241 to 243 °C,COc1cc(I)cc2c(O)c(C(=O)NCc3ccc(Cl)cc3)cnc12
16,127 to 129 °C,COc1ccc(CCN2CCC(C(O)c3nc4ccccc4s3)CC2)cc1 (configuration not stated)
17,172 to 173 °C,O=C1C2CCCC2Nc2ccccc2N1Cc1ccccc1 (configuration not stated)
18,120 to 122 °C,CCCCCc1c(/C=C/C(=O)Oc2ccc([N+](=O)[O-])cc2)oc2cc(OC)ccc12
19,154 °C,CCOC(=O)c1ncc2[nH]c3ccc(Oc4ccc(OC)cc4)cc3c2c1COC
20,104 to 107 °C,Cc1cc(OCCN2CCC(n3cnc4cccnc43)CC2)nn1-c1ccc(Cl)c(Cl)c1
21,219 to 220 °C,COc1cc(C(=O)O)ccc1OCc1nc(-c2ccccc2)oc1C
